Read-outs that look alike come from different tables or passages of the source.
Key:
[1] = molecular target: recombinant human NF-kappaB-inducing kinase (NIK/MAP3K14) (Homo sapiens, UniProt Q99558); assay: Inhibition of auto-phosphorylation of recombinant human NIK/MAP3K14 activity (AlphaScreen); type: biochemical; details: GST-tagged NIK/MAP3K14 1 nM, 5 μM ATP, 2 h at 25° C.; average of values obtained
Method: Inhibition of Auto-Phosphorylation of Recombinant Human NF-kappaB-Inducing Kinase (NIK/MAP3K14) Activity (AlphaScreen®)
NIK/MAP3K14 auto-phosphorylation activity was measured using the AlphaScreen® (αscreen) format (Perkin Elmer). All compounds tested were dissolved in dimethyl sulfoxide (DMSO) and further dilutions were made in assay buffer. The final DMSO concentration was 0.7% (v/v) in assays. The assay buffer was 50 mM Tris pH 7.5 containing 1 mM EGTA (ethylene glycol tetraacetic acid), 1 mM DTT (dithiothreitol), 0.1 mM Na3VO4, 5 mM MgCl2, and 0.01% Tween® 20. The assays were carried out in 384 well Proxiplates (Perkin Elmer). The incubations consisted of the compound, 5 μM Adenosine-5′-triphosphate (ATP), and 1 nM NIK/MAP3K14. Incubations were initiated by the addition of GST-tagged NIK/MAP3K14 enzyme, carried out for 2 h at 25° C. and terminated by addition of stop buffer containing anti-phospho-IKK Ser176/180 antibody. Protein A Acceptor and Glutathione-Donor beads were added before reading using an EnVision Multilabel Plate Reader (Perkin Elmer). The signal obtained in the wells was normalized using high (full enzyme activity, 0.7% DMSO) and low controls (no enzyme activity, 0.7% DMSO, no ATP). IC50's were determined by fitting a sigmoidal curve to % inhibition of control versus Log10 compound concentration.

[2] = tested on: p-IKKα levels in L363 (NIK translocated multiple myeloma) cells; assay: Effect of compounds on p-IKKα levels in L363 cells (AlphaLISA SureFire Ultra); type: cell-based, human; details: Homo sapiens, 10 μM MG132, 6 h, average of values obtained, read-out: Assay 2 IC50
Method: Effect of Compounds on p-IKKα Levels in L363 (NIK Translocated Multiple Myeloma) Cells
All compounds tested were dissolved and serially diluted in DMSO, 1:3 dilution for 11 points in an Echo compatible plate. 100% DMSO was added to columns 12 and 24 of the plate to serve as high and low signal controls. This compound plate was used to spot 20 nL of compound or DMSO into a Greiner 384 well TC plate (781080). The final DMSO concentration was 0.3% (v/v) in cell assays. Human L363 cells (ATCC) were cultured in RPMI1640 medium supplemented with GlutaMax, non-essential amino acids, sodium pyruvate and 10% fetal bovine serum. Cells were routinely maintained at densities of […]-2×10^6 cells per mL at 37° C. in a humidified 5% CO2 atmosphere incubator. Cells were passaged twice a week splitting back to obtain the low density. The day before the assay, cells were washed twice in HBSS (Hank's Balanced Salt Solution), resuspended in Dulbecco's Modified Eagle Medium (DMEM)+0.5% IgG and protease free BSA (Jackson Immuno Research Laboratories), +/−250 ng/ml recombinant human B-cell activating factor (BAFF/BLyS/TNFSF13B) and incubated overnight at 37° C. in a humidified 5% CO2 atmosphere (bulk stimulation with or without BAFF). The next day, the cell concentration was adjusted to 1×10^7 cells/ml in DMEM+/−250 ng/ml BAFF+/10 μM MG132 and plated at […] into compound or DMSO spotted 384 well TC plates. Seeded cells were incubated at 37° C. in a humidified 5% CO2 atmosphere for 6 h. After 6 h, the plates were removed from the incubator and cell lysis was achieved by the addition of 2.5 μl 5×lysis buffer containing protease and phosphatase inhibitors, followed by shaking on a plate shaker at room temperature for 15 min. At the end of this incubation, lysed cells were sequentially treated and incubated with acceptor and donor bead mixes according to the manufacturer's protocol for a 1 plate/2-incubation suspension cell assay (AlphaLISA SureFire Ultra p-IKKa (Ser 176/180) Assay Kit (Perkin Elmer). Plates were read using an EnVision Multilabel Plate Reader (Perkin Elmer). Within an experiment, a concentration response curve for each compound was run in duplicate. The signal obtained in the test wells was normalized using high signal (BAFF stimulated cells, DMSO, MG132) and low signal (unstimulated cells, DMSO) controls. To determine the IC50, a sigmoidal curve was fitted to the plot of % inhibition versus Log10 compound concentration.

[3] = L-363, 6 h, 250 ng/ml BAFF stimulated
[4] = L-363, 250 ng/ml BAFF stimulated

Sequence of recombinant human NF-kappaB-inducing kinase (NIK/MAP3K14) (Q99558 whole entry): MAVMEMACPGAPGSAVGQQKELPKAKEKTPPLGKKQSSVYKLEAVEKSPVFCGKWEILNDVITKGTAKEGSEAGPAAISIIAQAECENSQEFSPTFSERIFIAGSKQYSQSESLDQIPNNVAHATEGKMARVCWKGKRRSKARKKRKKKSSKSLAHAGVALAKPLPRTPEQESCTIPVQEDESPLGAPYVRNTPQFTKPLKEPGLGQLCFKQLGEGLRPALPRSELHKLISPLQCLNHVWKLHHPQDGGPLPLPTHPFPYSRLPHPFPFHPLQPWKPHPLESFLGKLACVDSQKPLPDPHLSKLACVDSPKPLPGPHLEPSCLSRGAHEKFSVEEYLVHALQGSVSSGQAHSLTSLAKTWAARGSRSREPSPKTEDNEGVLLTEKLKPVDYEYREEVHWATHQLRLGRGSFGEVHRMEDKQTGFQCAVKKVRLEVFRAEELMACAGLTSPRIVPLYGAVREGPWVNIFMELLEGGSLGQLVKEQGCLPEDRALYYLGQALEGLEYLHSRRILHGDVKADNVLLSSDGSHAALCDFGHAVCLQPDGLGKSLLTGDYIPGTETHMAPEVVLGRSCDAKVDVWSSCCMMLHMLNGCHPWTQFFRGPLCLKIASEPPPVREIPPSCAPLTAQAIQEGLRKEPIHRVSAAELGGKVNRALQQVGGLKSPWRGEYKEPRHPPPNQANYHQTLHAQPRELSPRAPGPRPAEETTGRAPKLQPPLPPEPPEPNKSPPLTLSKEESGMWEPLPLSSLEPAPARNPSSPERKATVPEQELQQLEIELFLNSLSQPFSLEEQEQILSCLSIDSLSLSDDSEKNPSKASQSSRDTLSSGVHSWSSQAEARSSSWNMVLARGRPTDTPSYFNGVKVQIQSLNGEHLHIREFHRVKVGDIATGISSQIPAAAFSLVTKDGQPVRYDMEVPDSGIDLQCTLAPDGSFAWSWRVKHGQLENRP

IC50 [1]	IC50 [2, 3]	Structure (SMILES)	IC50 [2, 4]
> 500 nM	> 500 nM	O[C@]1(c2cccc(-c3csc(-c4c[nH]c5ncccc45)n3)c2)CCc2cccnc21 (single isomer, unassigned) [Example 1]	
≤ 100 nM	100 to 500 nM	O[C@@]1(c2cccc(-c3csc(-c4c[nH]c5ncccc45)n3)c2)CCc2cccnc21 (single isomer, unassigned) [Example 2]	
≤ 100 nM	100 to 500 nM	O[C@@]1(c2cccc(-c3csc(-c4c[nH]c5ncncc45)n3)c2)CCc2cccnc21 (single isomer, unassigned) [Example 5]	
100 to 500 nM	> 500 nM	O[C@]1(c2cccc(-c3csc(-c4c[nH]c5ncncc45)n3)c2)CCc2cccnc21 (single isomer, unassigned) [Example 6]	
≤ 100 nM	100 to 500 nM	O[C@@]1(c2cccc(-c3nc(-c4c[nH]c5ncccc45)cs3)c2)CCc2cccnc21 (single isomer, unassigned) [Example 22]	
100 to 500 nM	> 500 nM	O[C@]1(c2cccc(-c3nc(-c4c[nH]c5ncccc45)cs3)c2)CCc2cccnc21 (single isomer, unassigned) [Example 23]	
100 to 500 nM	> 500 nM	O[C@]1(c2cccc(-c3csc(-c4c[nH]c5ncccc45)n3)c2)CCc2scnc21 (single isomer, unassigned) [Example 31]	
≤ 100 nM	≤ 100 nM	O[C@@]1(c2cccc(-c3csc(-c4c[nH]c5ncccc45)n3)c2)CCc2scnc21 (single isomer, unassigned) [Example 32]	
≤ 100 nM	> 500 nM	O[C@@]1(c2cccc(-c3csc(-c4c[nH]c5ncccc45)n3)c2)C=Cc2cccnc21 (single isomer, unassigned) [Example 33]	
> 500 nM	> 500 nM	O[C@]1(c2cccc(-c3csc(-c4c[nH]c5ncccc45)n3)c2)C=Cc2cccnc21 (single isomer, unassigned) [Example 34]	
> 500 nM	> 500 nM	CC1(C)Cc2cccnc2[C@@]1(O)c1cccc(-c2csc(-c3c[nH]c4ncccc34)n2)c1 (single isomer, unassigned) [Example 35]	
≤ 100 nM	> 500 nM	CC1(C)Cc2cccnc2[C@]1(O)c1cccc(-c2csc(-c3c[nH]c4ncccc34)n2)c1 (single isomer, unassigned) [Example 36]	
> 500 nM	> 500 nM	O[C@]1(c2cccc(-c3csc(-c4c[nH]c5ncccc45)n3)c2)CCCn2ccnc21 (single isomer, unassigned) [Example 37]	
≤ 100 nM	≤ 100 nM	O[C@@]1(c2cccc(-c3csc(-c4c[nH]c5ncccc45)n3)c2)CCCn2ccnc21 (single isomer, unassigned) [Example 38]	
> 500 nM	> 500 nM	C[C@@](O)(c1cccc(-c2csc(-c3c[nH]c4ncccc34)n2)c1)c1ccccn1 (single isomer, unassigned) [Example 60]	
> 500 nM	> 500 nM	C[C@](O)(c1cccc(-c2csc(-c3c[nH]c4ncccc34)n2)c1)c1ccccn1 (single isomer, unassigned) [Example 61]	
> 500 nM	> 500 nM	C[C@](O)(c1cccc(-c2csc(-c3c[nH]c4ncccc34)n2)c1)c1nccs1 (single isomer, unassigned) [Example 64]	
≤ 100 nM	> 500 nM	C[C@@](O)(c1cccc(-c2csc(-c3c[nH]c4ncccc34)n2)c1)c1nccs1 (single isomer, unassigned) [Example 65]	
> 500 nM	> 500 nM	C[C@@](O)(c1cccc(-c2csc(-c3c[nH]c4nccnc34)n2)c1)c1ncc[nH]1 (single isomer, unassigned) [Example 77]	
> 500 nM	> 500 nM	C[C@](O)(c1cccc(-c2csc(-c3c[nH]c4nccnc34)n2)c1)c1ncc[nH]1 (single isomer, unassigned) [Example 78]	
> 500 nM	> 500 nM	Cn1ccnc1[C@@](C)(O)c1cccc(-c2csc(-c3c[nH]c4ncccc34)n2)c1 (single isomer, unassigned) [Example 79]	
> 500 nM	> 500 nM	C[C@@](O)(c1cccc(-c2csc(-c3c[nH]c4ncccc34)n2)c1)c1ncc[nH]1 (single isomer, unassigned) [Example 80]	
100 to 500 nM	> 500 nM	O[C@@H]1C[C@@](O)(c2cccc(-c3csc(-c4c[nH]c5ncccc45)n3)c2)c2ncccc21 (single isomer, unassigned) [Example 101]	
> 500 nM	> 500 nM	O[C@H]1C[C@](O)(c2cccc(-c3csc(-c4c[nH]c5ncccc45)n3)c2)c2ncccc21 (single isomer, unassigned) [Example 102]	
> 500 nM	> 500 nM	O[C@H]1C[C@@](O)(c2cccc(-c3csc(-c4c[nH]c5ncccc45)n3)c2)c2ncccc21 (single isomer, unassigned) [Example 103]	
> 500 nM	> 500 nM	O[C@@H]1C[C@](O)(c2cccc(-c3csc(-c4c[nH]c5ncccc45)n3)c2)c2ncccc21 (single isomer, unassigned) [Example 104]	

Structure (SMILES)	IC50 [1]	IC50 [2, 3]	IC50 [2, 4]
CN1CC[C@@](O)(c2cccc(-c3cnc(-c4c[nH]c5ncccc45)s3)c2)C1=O (single isomer, unassigned) [Example 3]	100 to 500 nM		> 500 nM
CN1CC[C@](O)(c2cccc(-c3cnc(-c4c[nH]c5ncccc45)s3)c2)C1=O (single isomer, unassigned) [Example 4]	> 500 nM		> 500 nM
CN1CC[C@](O)(c2cccc(-c3csc(-c4c[nH]c5nccnc45)n3)c2)C1=O (single isomer, unassigned) [Example 39]	> 500 nM		> 500 nM
CN1CC[C@@](O)(c2cccc(-c3csc(-c4c[nH]c5nccnc45)n3)c2)C1=O (single isomer, unassigned) [Example 40]	≤ 100 nM		100 to 500 nM
CN1CC[C@@](O)(c2cccc(-c3csc(-c4c[nH]c5ncccc45)n3)c2)C1=O (single isomer, unassigned) [Example 47]	≤ 100 nM		100 to 500 nM
CN1CC[C@](O)(c2cccc(-c3csc(-c4c[nH]c5ncccc45)n3)c2)C1=O (single isomer, unassigned) [Example 48]	> 500 nM		> 500 nM
CN1CC[C@](O)(c2cccc(-c3csc(-c4c[nH]c5ncncc45)n3)c2)C1=O (single isomer, unassigned) [Example 52]	100 to 500 nM		> 500 nM
O=C1Nc2cccnc2[C@]1(O)c1cccc(-c2csc(-c3c[nH]c4ncccc34)n2)c1 (single isomer, unassigned) [Example 89]	> 500 nM		> 500 nM
O=C1Nc2cccnc2[C@@]1(O)c1cccc(-c2csc(-c3c[nH]c4ncccc34)n2)c1 (single isomer, unassigned) [Example 90]	> 500 nM		> 500 nM
CN1CC[C@@](O)(c2cccc(-c3nc(-c4c[nH]c5ncccc45)sc3F)c2)C1=O (single isomer, unassigned) [Example 99]	≤ 100 nM		> 500 nM

From patent US20230416256A1, “SMALL MOLECULE INHIBITORS OF NF-kB INDUCING KINASE” (Janssen Pharmaceutica NV, priority 2020, published 2023)
